Measured values from patent US9254251B2, “Benzoic acid amide compound” (AMOREPACIFIC CORPORATION, priority 2011, dated 2016).

Key:
B16F10 melanoma cells = assay: Effect of reducing melanin production in melanocytes (Dooley's method); assay type: cell-based; settings: B16-F10, 120 h; Mouse-derived B16F10 melanoma cells; melanin extracted after 5 days, absorbance at 405 nm; read-out: IC50 (concentration required to reduce melanin production in melanocytes to half)
Protocol: The effect of reducing melanin production of the benzamide derivative compounds prepared in Examples in melanocytes was measured according to the Dooley's method. Mouse-derived B16F10 melanoma cells acquired from the Korean Cell Line Bank were used. DMEM (Cat No. 11995), FBS (Cat No. 16000-044), and antibiotic and antifungal agents (Cat No. 15240-062) necessary for cell culturing were purchased from Invitrogen (GIBCO). The cells were cultured under the condition of 37° C. and 5% CO2. The cultured B16F10 cells were detached using 0.05% trypsin-EDTA and seeded onto a 48-well plate with the same cell number (1×10^4 cells/well). From the next day, the culture medium was replaced with one containing 10 ppm of the compound of Examples for three consecutive days. Kojic acid and rucinol were used as positive control. After 5 days, melanin was extracted from the cells by treating with 1 N NaOH at 60° C. for 2 hours, which was quantitated by measuring absorbance at 405 nm.

mushroom tyrosinase = assay: Effect of inhibiting mushroom tyrosinase activity (method of Vanni, et al.); assay type: biochemical; settings: read-out: IC50 (concentration required to inhibit tyrosinase activity to 50%); mushroom tyrosinase 10 units, tyrosine substrate, 37° C. for 10 minutes, pH 6.8, absorbance at 480 nm
Protocol: The effect of inhibiting mushroom tyrosinase activity of the benzamide derivative compounds of Examples was measured according to the method of Vanni, et al. Specifically, 49.5 μL of 0.1 M potassium phosphate buffer (pH 6.8), 45 μL of distilled water (DW), 0.5 μL (10 units) of mushroom tyrosinase (SIGMAT-7755) and 5 μL of the benzamide derivative compound of Examples were mixed and reacted at 37° C. for 10 minutes by mixing with 50 μL of 0.3 mg/mL tyrosine aqueous solution in a 96-well plate (total volume: 150 μL).

Row | SMILES | IC50 (B16F10 melanoma cells) [µM] | IC50 (mushroom tyrosinase) [µM]
1 | O=C(NCCc1ccc(O)c(O)c1)c1cc(C23CC4CC(CC(C4)C2)C3)c(O)cc1O [Example 1, 5-adamantan-1-yl-N-[2-(3,4-dihydroxyphenyl)-ethyl]-2,4-dihydroxybenzamide] | 1.2 | 
2 | O=C(NCCc1ccc(O)cc1)c1cc(C23CC4CC(CC(C4)C2)C3)c(O)cc1O [Example 5, 5-adamantan-1-yl-2,4-dihydroxy-N-[2-(4-hydroxyphenyl)-ethyl]benzamide] | 1.1 | 
3 | O=C(NCc1ccc(O)cc1O)c1cc(C23CC4CC(CC(C4)C2)C3)c(O)cc1O [Example 8, 5-adamantan-1-yl-N-(2,4-dihydroxybenzyl)-2,4-dihydroxybenzamide] | 1.2 | 1.1
4 | COc1cc(O)c(C(=O)NCc2ccc(O)cc2O)cc1C12CC3CC(CC(C3)C1)C2 [Example 9, 5-adamantan-1-yl-N-(2,4-dihydroxybenzyl)-2-hydroxy-4-methoxybenzamide] | 1.8 | 0.8
5 | COc1cc(OC)c(C23CC4CC(CC(C4)C2)C3)cc1C(=O)NCc1ccc(O)cc1O [Example 10, 5-adamantan-1-yl-N-(2,4-dihydroxybenzyl)-2,4-dimethoxybenzamide] | 1.1 | 0.9
6 | COc1ccc(C(=O)NCc2ccc(O)c(O)c2)cc1C12CC3CC(CC(C3)C1)C2 [Example 12, 3-adamantan-1-yl-N-(3,4-dihydroxybenzyl)-4-methoxybenzamide] | 1.9 | 
7 | O=C(NCCc1ccc(O)c(O)c1)c1ccc(O)c(C23CC4CC(CC(C4)C2)C3)c1 [Example 13, 3-adamantan-1-yl-N-[2-(3,4-dihydroxyphenyl)-ethyl]-4-hydroxybenzamide] | 3 | 
8 | O=C(NCc1ccc(O)cc1O)c1ccc(O)c(C23CC4CC(CC(C4)C2)C3)c1 [Example 17, 3-adamantan-1-yl-N-(2,4-dihydroxybenzyl)-4-hydroxybenzamide] |  | 0.9
9 | COc1ccc(C(=O)NCc2ccc(O)cc2O)cc1C12CC3CC(CC(C3)C1)C2 [Example 18, 3-adamantan-1-yl-N-(2,4-dihydroxybenzyl)-4-methoxybenzamide] |  | 1.4
10 | O=C(NCc1cc(O)ccc1O)c1cc(C23CC4CC(CC(C4)C2)C3)c(O)cc1O [Example 20, 5-adamantan-1-yl-N-(2,5-dihydroxybenzyl)-2,4-dihydroxybenzamide] | 2.9 | 
11 | COc1cc(CNC(=O)c2cc(C34CC5CC(CC(C5)C3)C4)c(O)cc2O)cc(OC)c1 [Example 21, 5-adamantan-1-yl-N-(3,5-dimethoxybenzyl)-2,4-dihydroxybenzamide] | 2 | 
12 | O=c1cc(CO)occ1O [Kojic acid, reference compound] | 300 | 
13 | CCCCc1ccc(O)cc1O [Rucinol, reference compound] | 10 | 1.3
